Literature values, collected in patent US8389574B2, “Method useful for the prevention of type 2 diabetes and its complications in pre-diabetic patients with insulin resistance” (Sigma-Tau Industrie Farmaceutiche Riunite S.p.A., priority 2007, dated 2013).

Conditions: DPP participants at high risk for IGT and type 2 diabetes; over 3 years

CN(C)C(=N)N=C(N)N [metformin]
Reduction of risk of getting type 2 diabetes: 31%
